Experiment [1] has as its target T1, Retinoic acid receptor RXR-gamma (Homo sapiens, UniProt P48443).
T1 sequence (P48443 whole entry): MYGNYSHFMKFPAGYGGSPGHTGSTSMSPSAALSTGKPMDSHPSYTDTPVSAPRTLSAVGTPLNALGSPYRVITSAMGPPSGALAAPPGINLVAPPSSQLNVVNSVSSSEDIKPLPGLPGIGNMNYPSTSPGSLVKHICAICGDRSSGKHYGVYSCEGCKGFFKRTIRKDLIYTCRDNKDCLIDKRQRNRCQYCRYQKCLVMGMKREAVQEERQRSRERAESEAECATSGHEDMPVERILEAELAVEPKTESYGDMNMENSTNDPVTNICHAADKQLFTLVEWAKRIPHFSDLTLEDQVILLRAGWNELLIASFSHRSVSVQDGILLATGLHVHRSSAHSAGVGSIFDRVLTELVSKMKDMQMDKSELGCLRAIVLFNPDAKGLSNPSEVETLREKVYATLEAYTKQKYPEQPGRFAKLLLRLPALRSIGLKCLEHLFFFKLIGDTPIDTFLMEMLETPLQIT
Description: Effective concentrations against Retinoic acid receptor RXR-gamma.

In experiment [2] the target is T2, Retinoic acid receptor RXR-alpha (Homo sapiens, UniProt P19793).
T2 sequence (P19793 whole entry): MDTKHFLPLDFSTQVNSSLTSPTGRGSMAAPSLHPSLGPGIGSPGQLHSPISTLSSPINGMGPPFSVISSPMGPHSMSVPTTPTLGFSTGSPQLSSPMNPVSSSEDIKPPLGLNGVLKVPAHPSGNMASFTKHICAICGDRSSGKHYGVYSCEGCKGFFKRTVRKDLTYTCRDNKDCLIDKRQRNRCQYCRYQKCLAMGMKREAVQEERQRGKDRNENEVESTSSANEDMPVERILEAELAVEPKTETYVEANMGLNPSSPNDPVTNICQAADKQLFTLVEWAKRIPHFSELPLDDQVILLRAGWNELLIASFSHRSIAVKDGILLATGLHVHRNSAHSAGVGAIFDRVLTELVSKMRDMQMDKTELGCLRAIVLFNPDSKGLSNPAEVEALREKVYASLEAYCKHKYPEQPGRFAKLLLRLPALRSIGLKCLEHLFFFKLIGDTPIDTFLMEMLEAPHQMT
Description: Effective concentration against Retinoic acid receptor RXR-alpha.

For experiment [3], the target named is T3, Retinoic acid receptor RXR-beta (Homo sapiens, UniProt P28702).
T3 sequence (P28702 whole entry): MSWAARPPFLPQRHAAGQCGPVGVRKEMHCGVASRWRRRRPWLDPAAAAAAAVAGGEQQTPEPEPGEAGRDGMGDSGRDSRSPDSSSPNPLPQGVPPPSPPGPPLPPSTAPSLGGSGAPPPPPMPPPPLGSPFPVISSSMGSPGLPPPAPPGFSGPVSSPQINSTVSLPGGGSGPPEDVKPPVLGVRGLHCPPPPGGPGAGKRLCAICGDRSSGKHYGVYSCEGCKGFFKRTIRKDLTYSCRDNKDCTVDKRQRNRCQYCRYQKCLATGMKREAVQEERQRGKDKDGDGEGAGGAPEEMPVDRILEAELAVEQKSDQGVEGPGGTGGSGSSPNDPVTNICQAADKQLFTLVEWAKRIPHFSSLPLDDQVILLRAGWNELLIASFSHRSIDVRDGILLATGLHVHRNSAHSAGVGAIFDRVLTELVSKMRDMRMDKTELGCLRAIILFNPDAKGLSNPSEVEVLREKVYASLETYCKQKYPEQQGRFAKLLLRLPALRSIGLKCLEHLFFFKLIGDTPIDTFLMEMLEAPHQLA
Description: Effective concentrations against Retinoid X receptor RXR beta.

In experiment [4] the target is T3, Retinoic acid receptor RXR-beta. In words: Effective concentrations against Retinoic acid receptor RXR-beta.

Each structure is given as a SMILES string. Values joined by “and” are separate entries in the source; they are usually repeats but may differ in a detail not shown here. Identical values can stand only once.

Consider `CC(/C=C/C1(c2cc3c(cc2C)C(C)(C)CCC3(C)C)OCCO1)=C\C(=O)O`, for which the EC50 (as a rule, the concentration at which the effect is half-maximal) in experiment [1] stood at 2300 nM; in experiment [2] it was 21 nM; in experiment [3], 47 nM. As for `C=C(c1ccc(C(=O)O)s1)c1cc2c(cc1C)C(C)(C)CCC2(C)C`, the EC50 in experiment [1] is 520 nM; in experiment [2] it was 330 nM; in experiment [4], 33 nM.

In experiment [2], `CC1(C)CCC(C)(C)c2cc(C3(c4ccc(C(=O)O)cc4)OCCO3)ccc21` yielded an EC50 of 34 nM. In the case of `CC1(C)CCC(C)(C)c2cc(C3(c4ccc(C(=O)O)cc4)SCCCS3)ccc21`, the EC50 in experiment [2] is 630 nM and 540 nM. As to `CC1(C)CCC(C)(C)c2cc(C3(c4ccc(C(=O)O)cc4)OCCCO3)ccc21`, in experiment [2], the EC50 was 750 nM and 1200 nM. In the case of `CC1(C)CCC(C)(C)c2cc(C3(c4ccc(C(=O)O)cc4)OCCS3)ccc21` (configuration not stated), in experiment [2], a half-maximal response (EC50) required 74 nM.

Consider `CC1(C)CCC(C)(C)c2cc(C(C)(C)c3ccc(C(=O)O)cc3)ccc21`, for which the EC50 in experiment [2] worked out at 3100 nM. On to `CC1(C)CCC(C)(C)c2cc(Cc3ccc(C(=O)O)cc3)ccc21`, for which the EC50 in experiment [1] stood at 2000 nM; in experiment [2], 2500 nM; in experiment [4], 2700 nM. `Cc1cc2c(cc1C(=O)c1ccc(C(=O)O)s1)C(C)(C)CCC2(C)C`: the EC50 in experiment [1] stood at 300 nM; in experiment [2] it was 2200 nM; in experiment [4] it was 1000 nM. Take `C/C=C(/c1ccc(C(=O)O)cc1)c1ccc2c(c1)C(C)(C)CCC2(C)C`: the EC50 is 370 nM in experiment [1]; 55 nM and 470 nM in experiment [2]; 160 nM in experiment [4].

The compound `CC(C)=C(/C=C/C(C)=C/C(=O)O)c1cc2c(cc1C)C(C)(C)CCC2(C)C` registered a concentration giving a half-maximal response (EC50) in experiment [2] of 200 nM. In experiment [2], `CC1(C)CCC(C)(C)c2cc(C(O)c3ccc(C(=O)O)cc3)ccc21` (configuration not stated) returned a concentration giving a half-maximal response (EC50) of 2900 nM. Still for that read-out and setting: as for `CC(c1ccc(C(=O)O)cc1)c1ccc2c(c1)C(C)(C)CCC2(C)C` (configuration not stated), the figure is 300 nM. With `CC1(C)CCC(C)(C)c2cc(Oc3ccc(C(=O)O)cc3)ccc21`, the figures for the EC50 in experiment [1], in experiment [2] and in experiment [4] were 530 nM, 2500 nM and 1900 nM, respectively. Consider `CC(C)=C(c1ccc(C(=O)O)cc1)c1ccc2c(c1)C(C)(C)CCC2(C)C`, for which, in experiment [2], the EC50 was 86 nM. This counts as double-digit nanomolar. Regarding `CC1(C)CCC(C)(C)c2cc(C3(c4ccc(C(=O)O)cc4)SCCS3)ccc21`, the EC50 in experiment [2] came out at 170 nM. This EC50 lies about 2-fold higher than the previous one.

Consider `C/C=C(\c1ccc(C(=O)O)cc1)c1ccc2c(c1)C(C)(C)CCC2(C)C`, for which, in experiment [2], the EC50 came to 2500 nM. The compound `CC1(C)CCC(C)(C)c2cc(C3(c4ccc(C(=O)O)cc4)CC3)ccc21` yielded a 50% effective concentration (EC50) in experiment [2] of 55 nM. For `CC(C)=C(/C=C/C(C)=C/C(=O)O)c1ccc2c(c1)C(C)(C)CCC2(C)C`, in experiment [2], the EC50 was 380 nM. The same measure, in the same setting: under `C=C(c1ccc(C(=O)O)cc1)c1ccc2c(c1)C(C)(C)CCC2(C)C` stands 270 nM.
